Results as given in US20240158408A1, “Nitrogen-Containing Heterocyclic Compound, Pharmaceutical Compositions thereof and Use thereof” (280 Bio, Inc., priority 2022, published 2024).

Target: PI3Kα (Homo sapiens (Human), UniProt P42336)
Assay: ADP-Glo Kinase Assay, PI3Kα enzyme activity inhibition
Settings: not given

Sequence of PI3Kα (P42336 whole entry): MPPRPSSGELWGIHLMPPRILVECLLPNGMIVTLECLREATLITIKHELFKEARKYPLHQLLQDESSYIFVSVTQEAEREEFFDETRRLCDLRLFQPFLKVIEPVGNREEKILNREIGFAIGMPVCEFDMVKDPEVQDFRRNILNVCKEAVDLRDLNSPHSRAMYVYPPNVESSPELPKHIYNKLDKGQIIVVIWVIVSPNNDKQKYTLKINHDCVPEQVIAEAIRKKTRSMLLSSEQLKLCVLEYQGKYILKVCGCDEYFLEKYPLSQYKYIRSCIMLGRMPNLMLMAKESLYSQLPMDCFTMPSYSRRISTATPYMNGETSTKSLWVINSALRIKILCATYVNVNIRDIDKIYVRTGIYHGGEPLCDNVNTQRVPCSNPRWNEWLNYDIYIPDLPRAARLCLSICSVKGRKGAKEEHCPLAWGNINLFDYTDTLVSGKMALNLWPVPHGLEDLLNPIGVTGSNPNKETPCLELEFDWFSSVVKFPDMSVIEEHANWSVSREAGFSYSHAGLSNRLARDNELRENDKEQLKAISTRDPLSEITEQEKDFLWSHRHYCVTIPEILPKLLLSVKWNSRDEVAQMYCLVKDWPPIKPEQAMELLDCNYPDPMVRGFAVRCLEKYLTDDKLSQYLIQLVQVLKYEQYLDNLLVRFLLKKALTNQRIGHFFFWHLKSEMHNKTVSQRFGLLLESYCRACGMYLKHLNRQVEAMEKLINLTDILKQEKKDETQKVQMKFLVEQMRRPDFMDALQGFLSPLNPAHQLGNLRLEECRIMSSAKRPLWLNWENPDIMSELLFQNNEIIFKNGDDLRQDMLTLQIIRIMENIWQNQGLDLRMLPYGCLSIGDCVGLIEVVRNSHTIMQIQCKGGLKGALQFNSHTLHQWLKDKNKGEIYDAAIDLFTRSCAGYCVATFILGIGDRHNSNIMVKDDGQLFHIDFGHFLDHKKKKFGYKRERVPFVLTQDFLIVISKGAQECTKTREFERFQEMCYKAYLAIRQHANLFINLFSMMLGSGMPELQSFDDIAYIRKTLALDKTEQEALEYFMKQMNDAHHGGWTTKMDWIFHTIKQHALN
Sequence of PI3Kα (P27986 whole entry partner): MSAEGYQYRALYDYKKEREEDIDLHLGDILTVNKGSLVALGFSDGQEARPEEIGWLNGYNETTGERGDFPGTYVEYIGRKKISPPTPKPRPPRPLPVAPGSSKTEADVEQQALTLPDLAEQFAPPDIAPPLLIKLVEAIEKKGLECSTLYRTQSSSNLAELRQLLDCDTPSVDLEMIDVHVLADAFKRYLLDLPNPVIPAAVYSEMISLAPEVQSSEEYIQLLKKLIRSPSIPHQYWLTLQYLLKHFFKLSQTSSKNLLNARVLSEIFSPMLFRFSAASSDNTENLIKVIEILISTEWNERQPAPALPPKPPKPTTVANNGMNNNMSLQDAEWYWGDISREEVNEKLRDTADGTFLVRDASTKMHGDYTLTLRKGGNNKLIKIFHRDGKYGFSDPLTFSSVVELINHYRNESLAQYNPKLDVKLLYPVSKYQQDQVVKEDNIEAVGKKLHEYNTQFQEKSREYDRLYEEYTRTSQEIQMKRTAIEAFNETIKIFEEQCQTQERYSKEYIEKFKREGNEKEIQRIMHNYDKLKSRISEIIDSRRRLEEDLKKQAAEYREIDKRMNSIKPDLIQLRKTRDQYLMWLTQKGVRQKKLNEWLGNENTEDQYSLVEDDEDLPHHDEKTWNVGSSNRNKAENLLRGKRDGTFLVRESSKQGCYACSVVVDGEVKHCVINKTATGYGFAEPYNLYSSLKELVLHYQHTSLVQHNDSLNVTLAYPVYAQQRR

SMILES	PI3Kaα IC50
CC(C)n1nc2ccc(NC(=O)c3cc(F)cc(C(F)(F)F)c3)c3c2c1C(=O)NC3c1cc(F)ccc1Cl (stereo not shown) [YL118]	++ (key: +represents IC50<=250 nM; ++ represents 250 nM<IC50<=10 μM; +++ represents IC50>10 μM)

Same assay, conditions: ADP-Glo; ATP 25 μM; PIP2 50 μg/mL; 1 hour at room temperature

SMILES	PI3Kaα IC50
O=C(Nc1cc(-c2c(C(F)(F)F)n[nH]c2C2CC2)c2c3c1C(c1cc(F)ccc1Cl)NC(=O)N3CC2)c1cc(F)cc(C(F)(F)F)c1 (stereo not shown) [YL048]	++ (++ represents 250 nM<IC50<=10 μM)
O=C(Nc1cc(-c2nn(Cc3ccccc3)cc2F)c2c3c1C(c1cc(F)ccc1Cl)NC(=O)N3CC2)c1cc(F)cc(C(F)(F)F)c1 (stereo not shown) [YL061]	+++ (+++ represents IC50>10 μM)
Cc1n[nH]c(C(F)(F)F)c1-c1cc(NC(=O)c2cc(F)cc(C(F)(F)F)c2)c2c3c1CCN3C(=O)NC2c1cc(F)ccc1Cl (stereo not shown) [YL072]	++ (++ represents 250 nM<IC50<=10 μM)
O=C(Nc1cc(-c2ccc3ncnn3c2Br)c2c3c1C(c1cc(F)ccc1Cl)NC(=O)N3CC2)c1cc(F)cc(C(F)(F)F)c1 (stereo not shown) [YL139]	+++ (+++ represents IC50>10 μM)
N#Cc1ncccc1-c1cc(NC(=O)c2cc(F)cc(C(F)(F)F)c2)c2c3c1CCN3C(=O)NC2c1cc(F)ccc1Cl (stereo not shown) [YL136]	++ (++ represents 250 nM<IC50<=10 μM)
Cc1ccccc1C1NC(=O)c2cccc3ccc(NC(=O)c4csc5ccccc45)c1c23 (stereo not shown) [YL004]	+++ (+++ represents IC50>10 μM)
Cn1nc(C(F)(F)F)cc1-c1cc(NC(=O)c2cc(F)cc(C(F)(F)F)c2)c2c3c1CCN3C(=O)NC2c1cc(F)ccc1Cl (stereo not shown) [YL014]	++ (++ represents 250 nM<IC50<=10 μM)
O=C(Nc1cc(-c2ccc3ncnn3c2C(F)(F)F)c2c3c1C(c1cc(F)ccc1Cl)NC(=O)N3CC2)c1cc(F)cc(C(F)(F)F)c1 (stereo not shown) [YL145]	+++ (+++ represents IC50>10 μM)
N#Cc1cc(NC(=O)c2cc(F)cc(C(F)(F)F)c2)c2c3c1CCN3C(=O)NC2c1cc(Cl)ccc1Cl (single isomer, unassigned) [YL101-P2]	+++ (+++ represents IC50>10 μM)
O=C(Nc1cc(B(O)O)c2c3c1C(c1cc(F)ccc1Cl)NC(=O)N3CC2)c1cc(F)cc(C(F)(F)F)c1 (stereo not shown) [YL019]	++ (++ represents 250 nM<IC50<=10 μM)
O=C(Nc1cc(NC(=O)C(F)(F)F)c2c3c1C(c1cc(F)ccc1Cl)NC(=O)N3CC2)c1cc(F)cc(C(F)(F)F)c1 (stereo not shown) [YL009]	++ (++ represents 250 nM<IC50<=10 μM)
Cc1ncc(-c2cc(NC(=O)c3cc(F)cc(C(F)(F)F)c3)c3c4c2CCN4C(=O)NC3c2cc(F)ccc2Cl)[nH]1 (stereo not shown) [YL067]	+++ (+++ represents IC50>10 μM)
O=C1NC(c2cc(F)ccc2Cl)c2c(Nc3ncnc4c(Cl)cc(F)cc34)ccc3c2N1CC3 (stereo not shown) [YL052]	+++ (+++ represents IC50>10 μM)
O=C1NC(c2cc(F)ccc2Cl)c2c(Nc3nccc4c(C(F)(F)F)cc(F)cc34)cc(F)c3c2N1CC3 (stereo not shown) [YL045]	+++ (+++ represents IC50>10 μM)
O=C(Nc1cc(Br)c2c3c1C(c1cc(F)ccc1Br)NC(=O)N3CC2)c1cc(F)cc(C(F)(F)F)c1 (stereo not shown) [YL063]	++ (++ represents 250 nM<IC50<=10 μM)
Cc1cc(NC(=O)c2cc(F)cc(C(F)(F)F)c2)c2c3c1CCN3C(=O)NC2c1cc(F)ccc1Cl (stereo not shown) [YL020]	+++ (+++ represents IC50>10 μM)
O=C(Nc1cc(-c2c[nH]c3ncc(C(F)(F)F)cc23)c2c3c1C(c1cc(F)ccc1Cl)NC(=O)N3CC2)c1cc(F)cc(C(F)(F)F)c1 (stereo not shown) [YL036]	++ (++ represents 250 nM<IC50<=10 μM)
N#Cc1n[nH]cc1-c1cc(NC(=O)c2cc(F)cc(C(F)(F)F)c2)c2c3c1CCN3C(=O)NC2c1cc(F)ccc1Cl (stereo not shown) [YL126]	+++ (+++ represents IC50>10 μM)
N#Cc1ccc(-c2cc(NC(=O)c3cc(F)cc(C(F)(F)F)c3)c3c4c2CCN4C(=O)NC3c2cc(F)ccc2Cl)c(N)n1 (stereo not shown) [YL134]	+++ (+++ represents IC50>10 μM)
O=C1NC(c2cc(F)ccc2Cl)c2c(-c3nc4c(F)cc(C(F)(F)F)cc4[nH]3)ccc3c2N1CC3 (stereo not shown) [YL032]	++ (++ represents 250 nM<IC50<=10 μM)
O=C(Nc1cc(-c2c(C(F)(F)F)n[nH]c2-c2ccccc2)c2c3c1C(c1cc(F)ccc1Cl)NC(=O)N3CC2)c1cc(F)cc(C(F)(F)F)c1 (stereo not shown) [YL049]	+++ (+++ represents IC50>10 μM)

Same assay, conditions: PI3Kaα IC50, ADP-Glo; ATP 25 μM; PIP2 50 μg/mL; 1 hour at room temperature

SMILES	IC50 [µM]
N#Cc1c(-c2cc(NC(=O)c3cc(F)cc(C(F)(F)F)c3)c3c4c2CCN4C(=O)NC3c2cc(Cl)ccc2Cl)ccc2ncnn12 (single isomer, unassigned) [YL109-P2]	> 10
N#Cc1c(-c2cc(NC(=O)c3cc(F)cc(C(F)(F)F)c3)c3c4c2CCN4C(=O)NC3c2cc(F)ccc2Cl)cc(F)c2ncnn12 (stereo not shown) [YL149]	> 10
Nc1cc(-c2nc3cc(Cl)c(Cl)cc3[nH]2)c2c3c1CCN3C(=O)NC2c1cc(F)ccc1Cl (stereo not shown) [YL100]	0.25 to 10
Nc1cc(-c2nc3cc(Cl)ccc3[nH]2)c2c3c1CCN3C(=O)NC2c1cc(F)ccc1Cl (stereo not shown) [YL099]	0.25 to 10
Nc1cc(NC(=O)c2cc(F)cc(C(F)(F)F)c2)c2c3c1CCN3C(=O)NC2c1cc(Cl)ccc1C(F)(F)F (stereo not shown) [YL095]	0.25 to 10
N#Cc1c(-c2cc(NC(=O)c3cc(F)cc(C(F)(F)F)c3)c3c4c2CCN4C(=O)NC3c2cc(F)ccc2Cl)ccc2ncnn12 (single isomer, unassigned) [YL108-P2]	> 10
